Patent US6617360B1, “Medical treatment” (Knoll Aktiengesellschaft, priority 1996, dated 2003)

Key:
L6 muscle cells = assay: [3H]-2-deoxyglucose (2DG) uptake in L6 muscle cells with and without added insulin (Study 1); assay type: cell-based
Method: L6 Muscle cells were obtained from the European Culture Collection (Porton Down) and were used at passages 7-11. Cells were maintained in standard tissue culture medium DMEM, and glucose uptake was assessed using [^3H]-2-deoxyglucose (2DG) with and without the presence of added insulin (10^−8 M) as has been previously described (Walker P S et al, Glucose transport activity in L6 muscle cells is regulated by the coordinate control of subcellular glucose transporter distribution, biosynthesis, and mRNA transcription, JBC, 1990;265(3), 1516-1523, and Kilp A et al, Stimulation of hexose transport by metformin in L6 muscle cells in culture, Endocrinology, 1992;130(5), 2535-2544).
Uptake of 2DG was expressed as the percentage change compared with control. Values are presented as mean±SEM of sets of 4 wells per experiment. Differences between sets of wells were evaluated by Student's t test, probability values p<0.05 were considered to be significant. […] In the presence of added insulin (10^−8 M), significant increases in 2DG uptake were observed following 24 hour incubation with the compound of formula I in which R1 and R2 are both methyl (sibutramine hydrochloride monohydrate) at 10^−8 M (from 149.9±4.3 to165.3±2.6), the compound of formula I in which R1 is methyl and R2 is H at 10^−7 M (from 147.3±3.0 to 160.7±4.5), and the compound of formula I in which R1 and R2 are both H, at 10^−7 M and 10^−6 M (from 149.1±3.9 to 161.8±3.3 and 165.2±3.6 respectively).

[1] = tested on: ob/ob mice (Aston Strain); assay: Chronic administration (10 mg/kg po) and withdrawal in obese ob/ob mice: plasma glucose, plasma insulin, body weight, food intake (Study 2); assay type: in vivo
Method: Studies were performed in obese ob/ob mice (Aston Strain) which are a model of severe insulin resistance and are also hyperglycaemic. The derivation and characteristics of this animal model have been previously described (Flatt P R, Bailey C J, Development of glucose intolerance and impaired plasma insulin response to glucose in obese hyperglycaemic (ob/ob) mice, Horm Metab Res 1981;13:556-560, and Bailey C J et al, Influence of genetic background and age on the expression of the obese hyperglycaemic syndrome in Aston ob/ob mice, Int J Obesity, 1982;6:11-21).
The ob/ob mice were individually housed in polypropylene cages at a temperature of 21±1° C. and 55% humidity. The mice had free access to a standard rat and mouse pelleted diet (Compound Rat and Mouse Diet, Special Diet Services, Witham, Essex) and tap water at all times. Animals were maintained on a reverse phase light-dark cycle. Lights were off between 09.00 h and 17.00 h in the acute experiment and between 10.00 h and 18.00 h in the chronic experiment. During this time the laboratory was illuminated by red lamps. Animals were acclimatised to these conditions for at least two weeks before experimentation.
All animals were given deionised water (at the start of the dark period) for 7 days. Body weight and food intake were measured daily. Blood samples were taken immediately before daily administration of vehicle (deionised water 10 ml/kg po) or compound of formula I in which R1 and R2 are both methyl (sibutramine hydrochloride monohydrate; 10 mg/kg po) on day 1 (baseline) and after 14 and 28 days of treatment (on day 15 and day 29 respectively). Blood samples were also taken 14 days following withdrawal of the sibutramine hydrochloride monohydrate (on day 43 of the study). Plasma glucose was determined by a glucose oxidase procedure (Analox GM7) and plasma insulin determined by radioimmunoassay (Amerlex, Amersham).

[2] = tested on: ob/ob mice (Aston Strain); assay: 6 weeks of treatment (5 mg/kg/day po) and 6 weeks of withdrawal in young ob/ob mice: body weight, plasma insulin, ip glucose tolerance test, insulin hypoglycaemia test (Study 3); assay type: in vivo
Method: Young ob/ob mice (Aston Strain) were randomised into 3 groups as follows: control, receiving placebo treatment (phosphate buffered saline 2.5 ml/kg/day po); sibutramine hydrochloride monohydrate-treated (5 mg/kg/day po); and pair-fed control, supplied with the same daily food intake as that consumed by the sibutramine hydrochloride monohydrate-treated group on the previous day. There was a 1 week run-in period followed by 6 weeks of treatment. Body weight and food intake were monitored every 1 to 2 days, and blood samples for plasma glucose and insulin were taken from the tail vein at weekly intervals in the non-fasted state at 11 a.m. An ip glucose tolerance test (D-glucose, 2 g/kg in 40% w/v solution in distilled water) and an insulin hypoglycaemia test (Actrapid, Novo-Nordisk, 2.5 u/kg ip) were conducted after 5 weeks of treatment. Food was withheld only for the duration of these tests (approx. 4 hours). The basal blood samples and the test procedures were undertaken 18 hours after the last treatment administration.
Treatment was stopped after 6 weeks, and the mice were monitored for the next 6 weeks. The pair-fed mice continued to be pair-fed with respect to the sibutramine hydrochloride monohydrate withdrawal group. A second insulin hypoglycaemia test was conducted 4 weeks after treatment was stopped. Plasma glucose was determined by an automated glucose oxidase procedure (Beckman) and plasma insulin determined by radioimmunnoassay (Amerlex, Amersham).

[3] = added insulin 10^−8 M, 24 hour incubation, compound 10^−7 M, insulin alone 147.3±3.0 (R1 methyl, R2 H) or 149.1±3.9 (both H), mean±SEM
[4] = compound group, day 1 of study, prior to treatment (baseline), mean ± SEM
[5] = 6 week withdrawal period after 5 mg/kg/day po, vs vehicle treated group, for almost all of the period

Compound: CC(C)CC(N)C1(c2ccc(Cl)cc2)CCC1 (stereo not drawn) [1-[1-(4-chlorophenyl)cyclobutyl]-3-methylbutylamine]
- Uptake of 2DG, percentage change compared with control (L6 muscle cells; absence of added insulin, 24 hours incubation, compound 10^−6 M, control 100±2.1, mean±SEM): 134±7.3%
- Uptake of 2DG, percentage change compared with control (L6 muscle cells; absence of added insulin, 24 hours incubation, compound 10^−7 M, control 100±2.1, mean±SEM): 123.9±4.3%
- Uptake of 2DG, percentage change compared with control (L6 muscle cells; absence of added insulin, 24 hours incubation, compound 10^−8 M, control 100±2.1, mean±SEM): 116.9±3.8%
- Uptake of 2DG, percentage change compared with control (L6 muscle cells; added insulin 10^−8 M, 24 hour incubation, compound 10^−6 M, insulin alone 149.1±3.9, mean±SEM): 165.2±3.6%
- Uptake of 2DG, percentage change compared with control (L6 muscle cells; [3]): 161.8±3.3%

Compound: CC(C)CC(N(C)C)C1(c2ccc(Cl)cc2)CCC1.Cl.O (stereo not drawn) [sibutramine hydrochloride monohydrate, N,N-dimethyl-1-[1-(4-chlorophenyl)cyclobutyl]-3-methylbutylamine hydrochloride monohydrate]
- Uptake of 2DG, percentage change compared with control (L6 muscle cells; added insulin 10^−8 M, 24 hour incubation, compound 10^−8 M, insulin alone 149.9±4.3, mean±SEM): 165.3±2.6%
- Plasma glucose (in words) ([1]; 10 mg/kg po daily, after 14 and 28 days of treatment, significant difference from control at day 28 (P<0.01)): fell
- Plasma glucose ([1]; 10 mg/kg po daily, day 15 of study (14 days of treatment), vehicle 21.7 ± 0.9, mean ± SEM): 19.0 ± 0.6 mmol/L
- Plasma insulin ([1]; 10 mg/kg po daily, day 15 of study (14 days of treatment), vehicle 49.7 ± 3.5, mean ± SEM): 45.1 ± 2.6 ng/mL
- Plasma glucose ([1]; 10 mg/kg po daily, day 29 of study (28 days of treatment), vehicle 26.0 ± 1.4, **P < 0.01 vs vehicle, mean ± SEM): 15.8 ± 0.7** mmol/l
- Plasma insulin ([1]; 10 mg/kg po daily, day 29 of study (28 days of treatment), vehicle 46.2 ± 4.5, mean ± SEM): 35.1 ± 2.7 ng/mL
- Plasma insulin (in words) ([1]; 10 mg/kg po daily, tended to fall on treatment and increased on withdrawal): No significant changes
- Body weight (in words) ([1]; 10 mg/kg po daily, vs vehicle): No significant changes
- Food intake (in words) ([1]; 10 mg/kg po daily, vs vehicle): No significant changes
- Plasma glucose (in words) ([1]; after 14 days of drug withdrawal, rose to control values): rose significantly
- Plasma glucose [1, 4]: 24.3 ± 0.6 mmol/L
- Plasma insulin [1, 4]: 92.0 ± 4.5 ng/mL
- Plasma glucose ([1]; day 43 of study, 14 days after drug withdrawal, vehicle 22.9 ± 1.7, mean ± SEM): 23.6 ± 1.2 mmol/L
- Plasma insulin ([1]; day 43 of study, 14 days after drug withdrawal, vehicle 40.6 ± 8.6, mean ± SEM): 77.1 ± 11.3 ng/mL
- Plasma insulin in ip glucose tolerance test (in words) ([2]; 5 mg/kg/day po, after 5 weeks of treatment, D-glucose 2 g/kg ip, vs vehicle, P<0.05, FIG. 1): significant reductions
- Plasma glucose in ip glucose tolerance test (in words) ([2]; 5 mg/kg/day po, after 5 weeks of treatment, D-glucose 2 g/kg ip, vs vehicle, P<0.05, FIG. 2): significant reductions
- Insulin hypoglycaemia test (in words) ([2]; 5 mg/kg/day po, at 5 weeks, insulin 2.5 u/kg ip, vs vehicle, P<0.05, FIG. 3): Significant improvements
- Body weight (in words) ([2]; 5 mg/kg/day po, during 6 weeks of treatment, compared to vehicle): significant reduction
- Plasma insulin (in words) ([2]; 5 mg/kg/day po, during 6 weeks of treatment, non-fasted, compared to vehicle): significant reduction
- Body weight (in words) [2, 5]: remained significantly lower
- Plasma insulin (in words) [2, 5]: remained significantly lower

Compound: CNC(CC(C)C)C1(c2ccc(Cl)cc2)CCC1 (stereo not drawn) [N-{1-[1-(4-chlorophenyl)cyclobutyl]-3-methylbutyl}-N-methylamine]
- Uptake of 2DG, percentage change compared with control (L6 muscle cells; [3]): 160.7±4.5%
